# Several values for one entry are separate records, joined by “and”; a condition that tells them apart may be missing. Equal values may be shown once.
# Test system: LG0703-F498-PDC complex spheroid growth
# Test: Anticancer human tumor LG0703-F498-PDC patient-derived lung adenocarcinoma cell line growth inhibition [AhR]
# Conditions: for viability, T/C: stronger effect = lower value
# Method in brief: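 Agents were dosed in half-log steps down from roughly clinical Cmax, or from 10 microM where Cmax was unknown, alone and with AhR antagonists. Read-out: percent test/control growth of tumor spheroids containing HUVEC and MSC stromal cells.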
# [1] = curve of first compound, second compound 0.1 µM
# [2] = curve of first compound, second compound 0.316 µM
# [3] = curve of first compound, second compound 1 µM
# [4] = curve of first compound, second compound 3.16 µM
# [5] = curve of first compound, second compound 10 µM
# [6] = second compound 0.1 µM, first compound 0.00949 µM
# [7] = second compound 0.1 µM, first compound 0.03 µM
# [8] = second compound 0.1 µM, first compound 0.0949 µM
# [9] = second compound 0.1 µM, first compound 0.3 µM
# [10] = second compound 0.1 µM, first compound 0.949 µM
# [11] = second compound 0.1 µM, first compound 3 µM
# [12] = second compound 0.316 µM, first compound 0.00949 µM
# [13] = second compound 0.316 µM, first compound 0.03 µM
# [14] = second compound 0.316 µM, first compound 0.0949 µM
# [15] = second compound 0.316 µM, first compound 0.3 µM
# [16] = second compound 0.316 µM, first compound 0.949 µM
# [17] = second compound 0.316 µM, first compound 3 µM
# [18] = second compound 1 µM, first compound 0.00949 µM
# [19] = second compound 1 µM, first compound 0.03 µM
# [20] = second compound 1 µM, first compound 0.0949 µM
# [21] = second compound 1 µM, first compound 0.3 µM
# [22] = second compound 1 µM, first compound 0.949 µM
# [23] = second compound 1 µM, first compound 3 µM
# [24] = second compound 3.16 µM, first compound 0.00949 µM
# [25] = second compound 3.16 µM, first compound 0.03 µM
# [26] = second compound 3.16 µM, first compound 0.0949 µM
# [27] = second compound 3.16 µM, first compound 0.3 µM
# [28] = second compound 3.16 µM, first compound 0.949 µM
# [29] = second compound 3.16 µM, first compound 3 µM
# [30] = second compound 10 µM, first compound 0.00949 µM
# [31] = second compound 10 µM, first compound 0.03 µM
# [32] = second compound 10 µM, first compound 0.0949 µM
# [33] = second compound 10 µM, first compound 0.3 µM
# [34] = second compound 10 µM, first compound 0.949 µM
# [35] = second compound 10 µM, first compound 3 µM
# 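Further: luminescence taken as a proxy for viable cell amount.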
# 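Wherever viability, T/C is given: percent of DMSO vehicle control where 100% means growth equal to vehicle.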
structure (smiles),measurement,setting,value
COc1cc(Nc2ncc3c(n2)-c2ccc(Cl)cc2C(c2c(F)cccc2OC)=NC3)ccc1C(=O)O + Cc1ccccc1N=Nc1ccc(NC(=O)c2ccnn2C)c(C)c1,IC50,[1],> 10000 nM
same,IC50,[2],5360 nM
same,IC50,[3],6050 nM
same,IC50,[4],4050 nM
same,IC50,[5],5020 nM
same,"viability, T/C","second compound 0.1 µM, first compound 0.0316 µM",93.2%
same,"viability, T/C","second compound 0.1 µM, first compound 0.1 µM",79.5%
same,"viability, T/C","second compound 0.1 µM, first compound 0.316 µM",60.5%
same,"viability, T/C","second compound 0.1 µM, first compound 1 µM",68.5%
same,"viability, T/C","second compound 0.1 µM, first compound 3.16 µM",67.9%
same,"viability, T/C","second compound 0.1 µM, first compound 10 µM",45.3%
same,"viability, T/C","second compound 0.316 µM, first compound 0.0316 µM",84.4%
same,"viability, T/C","second compound 0.316 µM, first compound 0.1 µM",82.2%
same,"viability, T/C","second compound 0.316 µM, first compound 0.316 µM",70.9%
same,"viability, T/C","second compound 0.316 µM, first compound 1 µM",74%
same,"viability, T/C","second compound 0.316 µM, first compound 3.16 µM",57.7%
same,"viability, T/C","second compound 0.316 µM, first compound 10 µM",39.7%
same,"viability, T/C","second compound 1 µM, first compound 0.0316 µM",86.6%
same,"viability, T/C","second compound 1 µM, first compound 0.1 µM",82.6%
same,"viability, T/C","second compound 1 µM, first compound 0.316 µM",65.4%
same,"viability, T/C","second compound 1 µM, first compound 1 µM",65.3%
same,"viability, T/C","second compound 1 µM, first compound 3.16 µM",54.2%
same,"viability, T/C","second compound 1 µM, first compound 10 µM",46%
same,"viability, T/C","second compound 3.16 µM, first compound 0.0316 µM",73.9%
same,"viability, T/C","second compound 3.16 µM, first compound 0.1 µM",71.8%
same,"viability, T/C","second compound 3.16 µM, first compound 0.316 µM",61.3%
same,"viability, T/C","second compound 3.16 µM, first compound 1 µM",62.5%
same,"viability, T/C","second compound 3.16 µM, first compound 3.16 µM",53.8%
same,"viability, T/C","second compound 3.16 µM, first compound 10 µM",40.8%
same,"viability, T/C","second compound 10 µM, first compound 0.0316 µM",70.9%
same,"viability, T/C","second compound 10 µM, first compound 0.1 µM",61.5%
same,"viability, T/C","second compound 10 µM, first compound 0.316 µM",62.5%
same,"viability, T/C","second compound 10 µM, first compound 1 µM",70.4%
same,"viability, T/C","second compound 10 µM, first compound 3.16 µM",55.7%
same,"viability, T/C","second compound 10 µM, first compound 10 µM",38%
CCN(c1cc(-c2ccc(CN3CCOCC3)cc2)cc(C(=O)NCc2c(C)cc(C)[nH]c2=O)c1C)C1CCOCC1,"viability, T/C",compound 0.00949 µM,102% and 110% and 103%
same,"viability, T/C",compound 0.03 µM,111% and 109% and 112%
same,"viability, T/C",compound 0.0949 µM,103% and 98.8% and 101%
same,"viability, T/C",compound 0.3 µM,99.3% and 99% and 107%
same,"viability, T/C",compound 0.949 µM,122% and 101% and 121%
same,"viability, T/C",compound 3 µM,106% and 110% and 113%
same,IC50,curve of compound,> 3000 nM
O=C(C=Cn1cnc(-c2cc(C(F)(F)F)cc(C(F)(F)F)c2)n1)NNc1cnccn1 + Cc1ccccc1N=Nc1ccc(NC(=O)c2ccnn2C)c(C)c1,IC50,[1],76.8 nM
same,IC50,[2],70.8 nM
same,IC50,[3],132 nM
same,IC50,[4],85.7 nM
same,IC50,[5],119 nM
same,"viability, T/C",[6],76.4%
same,"viability, T/C",[7],73%
same,"viability, T/C",[8],44.9%
same,"viability, T/C",[9],37.3%
same,"viability, T/C",[10],43.8%
same,"viability, T/C",[11],39.3%
same,"viability, T/C",[12],85.4%
same,"viability, T/C",[13],64.2%
same,"viability, T/C",[14],45.5%
same,"viability, T/C",[15],39.7%
same,"viability, T/C",[16],46.6%
same,"viability, T/C",[17],39.4%
same,"viability, T/C",[18],83%
same,"viability, T/C",[19],72%
same,"viability, T/C",[20],54%
same,"viability, T/C",[21],39.8%
same,"viability, T/C",[22],40%
same,"viability, T/C",[23],34.8%
same,"viability, T/C",[24],71.1%
same,"viability, T/C",[25],63.6%
same,"viability, T/C",[26],47%
same,"viability, T/C",[27],44.6%
same,"viability, T/C",[28],35.3%
same,"viability, T/C",[29],39.9%
same,"viability, T/C",[30],70%
same,"viability, T/C",[31],61.3%
same,"viability, T/C",[32],50.6%
same,"viability, T/C",[33],45.8%
same,"viability, T/C",[34],39.2%
same,"viability, T/C",[35],39.7%
Nc1ncn(C2CC(O)C(CO)O2)c(=O)n1 (configuration not stated),"viability, T/C",compound 0.00316 µM,101% (2×) and 107%
same,"viability, T/C",compound 0.01 µM,102% (2×) and 103%
same,"viability, T/C",compound 0.0316 µM,107% and 91.4% and 87.8%
same,"viability, T/C",compound 0.1 µM,88.2% and 98.2% and 82.9%
same,"viability, T/C",compound 0.316 µM,99.3% and 80.2% and 89.1%
same,"viability, T/C",compound 1 µM,80% and 86.7% and 87.6%
same,IC50,curve of compound,> 1000 nM
CC(C)CC(NC(=O)C(Cc1ccccc1)NC(=O)c1cnccn1)B(O)O (configuration not stated) + Cc1ccccc1N=Nc1ccc(NC(=O)c2ccnn2C)c(C)c1,IC50,[1],5.15 nM
same,IC50,[2],5 nM
same,IC50,[3],5.26 nM
same,IC50,[4],5 nM
same,IC50,[5],5.1 nM
same,"viability, T/C","second compound 0.1 µM, first compound 0.000949 µM",101%
same,"viability, T/C","second compound 0.1 µM, first compound 0.003 µM",85.3%
same,"viability, T/C",[6],10%
same,"viability, T/C",[7],0.56%
same,"viability, T/C",[8],0.28%
same,"viability, T/C",[9],0.18%
same,"viability, T/C","second compound 0.316 µM, first compound 0.000949 µM",95.2%
same,"viability, T/C","second compound 0.316 µM, first compound 0.003 µM",80%
same,"viability, T/C",[12],12.3%
same,"viability, T/C",[13],0.81%
same,"viability, T/C",[14],0.11%
same,"viability, T/C",[15],0.12%
same,"viability, T/C","second compound 1 µM, first compound 0.000949 µM",85.1%
same,"viability, T/C","second compound 1 µM, first compound 0.003 µM",85.8%
same,"viability, T/C",[18],12.8%
same,"viability, T/C",[19],0.76%
same,"viability, T/C",[20],0.13%
same,"viability, T/C",[21],0.17%
same,"viability, T/C","second compound 3.16 µM, first compound 0.000949 µM",86.9%
same,"viability, T/C","second compound 3.16 µM, first compound 0.003 µM",78%
same,"viability, T/C",[24],14.8%
same,"viability, T/C",[25],1.06%
same,"viability, T/C",[26],0.16%
same,"viability, T/C",[27],0.29%
same,"viability, T/C","second compound 10 µM, first compound 0.000949 µM",82%
same,"viability, T/C","second compound 10 µM, first compound 0.003 µM",81.3%
same,"viability, T/C",[30],13.5%
same,"viability, T/C",[31],1.28%
same,"viability, T/C",[32],0.3%
same,"viability, T/C",[33],0.39%
CCN(c1cc(-c2ccc(CN3CCOCC3)cc2)cc(C(=O)NCc2c(C)cc(C)[nH]c2=O)c1C)C1CCOCC1 + CC(CO)NC(=O)c1cc(-c2ccc(Cl)cc2)nn(-c2cnn(C)c2)c1=O,IC50,[1],> 3000 nM
same,IC50,[2],> 3000 nM
same,IC50,[3],> 3000 nM
same,IC50,[4],> 3000 nM
same,IC50,[5],> 3000 nM
same,"viability, T/C",[6],98.2%
same,"viability, T/C",[7],100%
same,"viability, T/C",[8],93.9%
same,"viability, T/C",[9],96.1%
same,"viability, T/C",[10],95.7%
same,"viability, T/C",[11],94.6%
same,"viability, T/C",[12],105%
same,"viability, T/C",[13],112%
same,"viability, T/C",[14],101%
same,"viability, T/C",[15],92.9%
same,"viability, T/C",[16],114%
same,"viability, T/C",[17],105%
same,"viability, T/C",[18],91.1%
same,"viability, T/C",[19],95.7%
same,"viability, T/C",[20],99%
same,"viability, T/C",[21],90%
same,"viability, T/C",[22],92.9%
same,"viability, T/C",[23],103%
same,"viability, T/C",[24],85.1%
same,"viability, T/C",[25],95.3%
same,"viability, T/C",[26],96.7%
same,"viability, T/C",[27],81.2%
same,"viability, T/C",[28],84.8%
same,"viability, T/C",[29],102%
same,"viability, T/C",[30],86%
same,"viability, T/C",[31],97.1%
same,"viability, T/C",[32],94.2%
same,"viability, T/C",[33],93.8%
same,"viability, T/C",[34],78.3%
same,"viability, T/C",[35],96.3%
CC(CO)NC(=O)c1cc(-c2ccc(Cl)cc2)nn(-c2cnn(C)c2)c1=O (configuration not stated),"viability, T/C",compound 1 µM,87.9% [middle of 21 runs]
same,"viability, T/C",compound 10 µM,77% [middle of 19 runs]
same,IC50,"compound alone, run of 05/31/2022",> 10000 nM
